{
  "source": "paper PMC6368403",
  "about": "“Identification of a bilirubin receptor that may mediate a component of cholestatic itch” (eLife, 2019)",
  "key": {"[1]": {"target": "T1, MRGPRX4 (Homo sapiens, UniProt Q96LA9)", "T1 construct": "expressed in transfected cells", "T1 sequence (Q96LA9 whole entry)": "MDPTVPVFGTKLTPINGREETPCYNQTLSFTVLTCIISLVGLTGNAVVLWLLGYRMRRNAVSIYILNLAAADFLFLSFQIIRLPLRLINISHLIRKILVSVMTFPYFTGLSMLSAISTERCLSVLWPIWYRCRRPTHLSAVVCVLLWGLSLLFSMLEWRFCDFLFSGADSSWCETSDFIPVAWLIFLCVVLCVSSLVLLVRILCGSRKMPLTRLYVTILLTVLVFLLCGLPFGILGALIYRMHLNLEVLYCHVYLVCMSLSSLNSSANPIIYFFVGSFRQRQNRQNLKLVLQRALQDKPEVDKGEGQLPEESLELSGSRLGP", "assay": "[35S]GTPγS binding to MRGPRX4 membrane complexes", "format": "biochemical", "conditions": "50 μM bilirubin", "protocol": "MRGPR activation was determined by measuring binding of a radiolabelled and non-hydrolyzable form of GTP, [^35S]guanosine-5’-(γ-thio)triphosphate ([^35S]GTPγS) as previously described ([Vasavda et al., 2017]). Briefly, 10 µg of crude membrane fractions were diluted into 175 µL assay buffer (50 mM HEPES, 5 mM MgCl2, 100 mM NaCl, 1 mM EDTA, 0.1% […]) supplemented with 10 µM GDP and incubated at room temperature for 5 min. Membranes were then incubated an additional 1 min in a final volume of 199 μL assay buffer supplemented with 50 μM bilirubin. Samples were then brought to 200 μL with the addition of 10 nM [^35S]GTPγS. Samples were incubated for 2 hr at 4°C with gentle agitation. The experiment was terminated by rapid filtration onto GF/B filters and washed three times with wash buffer (50 mM Tris-HCl, 5 mM MgCl2, and 50 mM NaCl at pH 7.4). Filters were then immersed in scintillation cocktail and counted. Nonspecific binding was determined by competition with 10 μM unlabelled GTPγS. GTPγS binding assays were performed as two independent experiments, in triplicate."}, "[2]": {"system": "DRG neurons", "assay": "Ca2+ imaging of cultured DRG neurons", "format": "cell-based, mouse", "conditions": "for Percent activated neurons: 50 µM bilirubin (Fig 3H)", "protocol": "All cultured cells were maintained in DMEM supplemented with 10% FBS and 1% Penicillin/Streptomycin at 37°C, 5% CO2. […] Cells were imaged in calcium imaging buffer (CIB; 10 mM HEPES, 1.2 mM NaHCO3, 130 mM NaCl, 3 mM KCl, 2.5 mM CaCl2, 0.6 mM MgCl2, 20 mM glucose, and 20 mM sucrose at pH 7.4 and 290–300 mOsm). To monitor changes in intracellular [Ca^2+] ([Ca^2+]i), cells were loaded with either Fura 2-AM (HEK293 cells) or Fluo 4-AM (DRG neurons and mast cells) for 30 min in the dark at 37°C in CIB just prior to imaging. With Fura 2-AM, emission at 510 nm was monitored from excitation at both 340 nm and 380 nm. With Fluo 4-AM, emission at 520 nm was monitored from excitation at 488 nm. Cells were identified as responding if the intracellular [Ca^2+] rose by either 50% compared to baseline or 50% compared to the [Ca^2+]i change assayed during addition of 50 mM KCl (neurons only). Damaged, detached, high-baseline, and motion-activated cells were excluded from analysis.\nDRGs were incubated with Fluo-4 AM 24 hr after dissociation (native genotype) or 48 hr after dissociation (virally transduced). Unless otherwise noted, cells were imaged for 20 seconds to establish a baseline before compounds were added. After 30 s, a 2 min wash was applied before addition of another substances. At the end of every imaging trial, 50 mM KCl was added as a positive control. […] For ruthenium red inhibitor experiments, neurons were incubated with 10 µM ruthenium red for 5 min prior to imaging. Percentage activated was determined as earlier described.\nDRG neurons from all spinal levels were collected in cold DH10 media (90% Dulbecco’s modified Eagle’s medium (DMEM)/F-12, 10% FBS, penicillin (100 U/mL), and streptomycin (100 μg/mL)). DRGs were digested with a dispase (5 mg/ml)/collagenase type I (1 mg/ml) enzyme mixture at 37°C for 45 min. After trituration, cells were spun at 300 g and re-suspended in DH10 before being plated on glass coverslips coated with poly-D-lysine (0.5 mg/ml) and laminin (10 μg/ml, Invitrogen). DRGs were cultured with DH10 supplemented with 50 ng/mL NGF at 37°C."}, "[3]": {"system": "Mrgprs", "assay": "Ca2+ imaging screen of HEK293 cells transiently expressing other Mrgprs (MRGPRA3, MRGPRD, MRGPRX1, MRGPRX2 and others)", "format": "cell-based", "conditions": "50 µM bilirubin, 12 Mrgprs screened", "protocol": "All cultured cells were maintained in DMEM supplemented with 10% FBS and 1% Penicillin/Streptomycin at 37°C, 5% CO2. All data included were generated from cells tested for mycoplasma and found to be negative. Cells were imaged in calcium imaging buffer (CIB; 10 mM HEPES, 1.2 mM NaHCO3, 130 mM NaCl, 3 mM KCl, 2.5 mM CaCl2, 0.6 mM MgCl2, 20 mM glucose, and 20 mM sucrose at pH 7.4 and 290–300 mOsm). To monitor changes in intracellular [Ca^2+] ([Ca^2+]i), cells were loaded with either Fura 2-AM (HEK293 cells) or Fluo 4-AM (DRG neurons and mast cells) for 30 min in the dark at 37°C in CIB just prior to imaging. With Fura 2-AM, emission at 510 nm was monitored from excitation at both 340 nm and 380 nm. With Fluo 4-AM, emission at 520 nm was monitored from excitation at 488 nm. Cells were identified as responding if the intracellular [Ca^2+] rose by either 50% compared to baseline or 50% compared to the [Ca^2+]i change assayed during addition of 50 mM KCl (neurons only). […]\nIn initial screens, HEK293 cells stably expressing the murine G-protein alpha-subunit Gα15, a unique Gα protein that non-selectively couples a large variety of GPCRs to phospholipase C ^30, were plated on poly-D-lysine-coated coverslips and transiently transfected with constructs encoding the MRGRPR of interest. […] Response was then monitored at 5 s intervals for an additional 60 s."}},
  "note": "“And” between values parts separate entries of the source, which are not always exact repeats. Equal entries are not always repeated.",
  "data": [
    {"smiles": "C=CC1=C(C)/C(=C/c2[nH]c(Cc3[nH]c(/C=C4\\NC(=O)C(C)=C4C=C)c(C)c3CCC(=O)O)c(CCC(=O)O)c2C)NC1=O", "note": "[bilirubin, bilirubin IXα]", "values": [
      {"measurement": "GTP binding to MRGPRX4 membrane complexes", "setting": "[1]", "value": "increased GTP binding"},
      {"measurement": "[35S]GTPγS binding", "setting": "[1]; MRGPRX4 membrane complexes (Fig 2K)", "value": "175 and 229 and 223"},
      {"measurement": "Percent activated neurons", "setting": "[2]; A1 KO DRG", "value": 1.8, "unit": "%"},
      {"measurement": "Percent activated neurons", "setting": "[2]; Mrgpr-cluster KO DRG", "value": 1.9, "unit": "%"},
      {"measurement": "Percent activated A3+ neurons", "setting": "[2]; Tg(Mrgpra3-Cre);lsl-tdTomato neurons, 50 µM bilirubin (Fig 4D)", "value": 51.4, "unit": "%"},
      {"measurement": "Percent activated neurons", "setting": "[2]; WT DRG", "value": "approximately 5%"},
      {"measurement": "Percent activated neurons", "setting": "[2]; WT DRG, listed as Bilirubin", "value": 5.43, "unit": "%"},
      {"measurement": "Calcium response of other Mrgprs to bilirubin", "setting": "[3]", "value": "No other Mrgpr among the 12 that we screened responded"}
    ]}
  ]
}
